The subject of data set [1] is cytochrome p450 (CPY) system. The conditions noted are these: cited from earlier work.
Another data set has as its target D3 (Homo sapiens, UniProt P35462). The conditions noted are these: cited from earlier work.
A short description of data set [2]: Clinical cases: galactorrhea. To be noted: Example 2, risperidone 2 mg per day.
A short description of data set [3]: Clinical cases: appetite / hunger. To be noted: Example 10, olanzapine 2.5 mg HS.
For data set [4] the following is noted: Parkinson's disease, 3.5-4.5 mg/day; decreased when the dose was lowered; cited from earlier work.
For data set [5] the following is noted: in vivo; cited from earlier work.
For data set [6] the following is noted: bipolar II, 6 weeks, n=10; cited from earlier work.
The conditions of data set [7]: cited from earlier work.
Assay in data set [8]: not given
The source holds these as a separate data set.

The conditions of data set [9]: in vivo; cited from earlier work. This is another data set of the same source.
The conditions of data set [10]: macroprolactinomas; cited from earlier work.
The conditions of data set [11]: in vivo; cited from earlier work. The source holds these as a separate data set.
The mark [12] stands for this setting: Example 12, approximately two months on pramipexole, same as before starting.
Where [13] appears, read: Example 9, pramipexole 0.25 mg AM & HS with quetiapine.

The source of these data is patent US20100311717A1, “METHODS AND COMPOSITIONS FOR RETARDING WEIGHT GAIN ASSOCIATED WITH USE OF ATYPICAL ANTIPSYCHOTIC DRUGS” (priority 2007, published 2010).

Where two headings read alike, the source gives them in different places.

Sequence of D3 (P35462 whole entry): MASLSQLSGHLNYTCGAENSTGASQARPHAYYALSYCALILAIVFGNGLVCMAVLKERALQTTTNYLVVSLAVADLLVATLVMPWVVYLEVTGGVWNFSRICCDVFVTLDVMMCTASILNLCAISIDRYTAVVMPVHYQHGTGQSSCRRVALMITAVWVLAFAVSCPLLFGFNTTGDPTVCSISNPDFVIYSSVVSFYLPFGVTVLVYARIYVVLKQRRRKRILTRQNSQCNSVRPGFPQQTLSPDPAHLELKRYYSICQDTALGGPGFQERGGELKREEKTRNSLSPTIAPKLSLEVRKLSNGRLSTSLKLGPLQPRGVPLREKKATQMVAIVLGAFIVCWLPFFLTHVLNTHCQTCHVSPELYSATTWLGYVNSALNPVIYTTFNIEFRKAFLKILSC

Take `CCCN(CCC)CCc1cccc2c1CC(=O)N2` [ropinirole]: the “interaction with the cytochrome p450 system” value in data set [1] was “p450 interactions”. Moreover, the “D3 affinity relative to pramipexole” value at D3 was “less D3 affinity”.
`Cc1nc2n(c(=O)c1CCN1CCC(c3noc4cc(F)ccc34)CC1)CCCC2` [risperidone]: in data set [2], the galactorrhea entry was “developed galactorrhea”.
For the molecule `Cc1cc2c(s1)Nc1ccccc1N=C2N1CCN(C)CC1` [olanzapine], the appetite result in [3] was “marked increase in appetite”.
`CCCN[C@H]1CCc2nc(N)sc2C1` [pramipexole]: the effect on weight result in [4] was “caused weight gain”. In addition, in data set [1], the “interaction with the cytochrome p450 system” value was “does not interact”. In addition, the “excreted unchanged in the urine” value in data set [5] is 90%. Also, the triglycerides after pramipexole (Example 7, pre-pramipexole 2.88 mmol/L) was 2.4 mmol/L. Also, where the note is “Example 7, pre-pramipexole 6.6 mmol/L”, the cholesterol after pramipexole is listed as 5.6 mmol/L. The molecule also came in with a cholesterol under setting [12] of 7.5 mmol/L. In addition, the “fasting blood sugar (FBS)” value under setting [12] came to 6.6 mmol/L. Under setting [12], this molecule yielded a triglycerides of 3.6 mmol/L. In data set [6], the “subjects who developed hypomanic symptoms” value is listed as “One”. The increase in anxiety in data set [7] (early in the dose escalation) was 18 of 38. The nausea reported in [7] (fibromyalgia, 14 week study) is reported as 79%. The weight lost in [8] (Example 1, pramipexole 0.25 mg twice per day with olanzapine 20 mg per day) is 11 pounds; in data set [8] (Example 13, pramipexole up to 0.25 mg twice per day, in three weeks) it was 5 pounds. For the same molecule, the weight after treatment was 176 pounds in [8] (Example 1, pramipexole 0.25 mg twice per day with olanzapine 20 mg per day, from 187 pounds); 154 pounds in [8] (Example 5, pramipexole increased to 0.25 mg per day, after 6 weeks); 244 pounds in data set [8] (Example 6, pramipexole 0.25 mg per day, from 247 pounds); 212 pounds in [8] (Example 7, pramipexole 0.25 mg per day, later); 214 pounds in data set [8] (Example 7, pramipexole increased to 0.25 mg per day, in two weeks); 172 pounds in [8] (Example 12, pramipexole 0.25 mg twice per day). Moreover, in data set [8] (Example 13, pramipexole up to 0.25 mg twice per day, from 132 pounds), the weight after treatment was 127 pounds. In addition, the weight maintained at in [8] (Example 3, olanzapine 10 mg per day with pramipexole up to 0.75 mg per day, prednisone 5 mg per day added) is 202 pounds; in data set [8] (Example 4, olanzapine 5 mg per day with pramipexole 0.25 mg twice per day), 168 pounds; in data set [8] (Example 8, olanzapine 15 mg per day with pramipexole 0.25 mg TID), 259 pounds; in data set [8] (setting [13]), 157 pounds; in [8] (Example 14, olanzapine 10 mg per day with pramipexole 0.25 mg twice per day, several months) it was 312 pounds. The “weight after restarting pramipexole” value in data set [8] (Example 4, 0.25 mg twice daily, within the next two weeks) worked out at 174 pounds. Moreover, the “weight after discontinuing pramipexole” value amounted to 181 pounds in [8] (Example 4, within one week, on olanzapine 5 mg per day) and 250 pounds in data set [8] (Example 6). Further, the “weight decreased by” value in [8] (setting [13]) came to 3 pounds. This molecule also came in with a weight gained in data set [8] (Example 11, pramipexole 0.25 mg AM & HS for 3 weeks, with quetiapine) of 5 pounds.
For `CCCN1CC(NS(=O)(=O)N(CC)CC)CC2Cc3c(O)cccc3CC21` (centres unmarked) [Quinagolide, quinagolide], the half-life in data set [9] was 24 h. For the same molecule, the “patients with significant weight loss” value in [10] is 11 of 12.
For `CC(C)C[C@H]1C(=O)N2CCC[C@H]2[C@]2(O)O[C@](NC(=O)[C@@H]3C=C4c5cccc6[nH]c(Br)c(c56)C[C@H]4N(C)C3)(C(C)C)C(=O)N12` [bromocriptine], in [11], the abdominal cramps was 4%, the constipation is 3%, the diarrhea was 3% and the dizziness is recorded as 17%. Besides, in data set [11], the drowsiness is on record as 3%, the fatigue is given as 7%, the headache was 19% and the “incidence of adverse effects” value was 69%. Also, in data set [11], the lightheadedness is 5%, the nasal congestion is given as 3%, the nausea is 49% and the “patients in whom therapy was discontinued because of adverse effects” value is “approximately 5%”. Besides, the vomiting in [11] was 5%.
In the case of `C[C@]12C=CC(=O)C=C1CC[C@@H]1[C@@H]2C(=O)C[C@@]2(C)[C@H]1CC[C@]2(O)C(=O)CO` [prednisone], the weight after treatment in [8] (human, in vivo) is listed as 185 pounds.
